From paper PMC12589998, “Development and validation of a UHPLC-QqQ-MS/MS method for simultaneous determination of fifteen major components from Oroxyli seed extract in rat plasma and its application in the pharmacokinetic study” (Frontiers in Pharmacology, 2025)

Columns and labels:
[1] = Pharmacokinetic study in rats after oral administration of OS extract (UHPLC-QqQ-MS/MS of plasma); format: in vivo, rat; details: for concentration at 0.5 h: SD, 3 g/kg, rat plasma collected 0.5 h after oral administration of the OS extract, read-out: Concentration printed in MRM chromatogram of plasma sample (Figure 2C); for Plasma levels: rat plasma after oral OS extract; for Tmax: read-out: Tmax
Procedure: The UHPLC-QqQ-MS/MS system consisted of a 1290 UHPLC and a 6470 mass spectrometer (Agilent Technologies). Chromatographic separation was realized on utilizing an ACQUITY UPLC BEH C18 column (2.1 × 100 mm, 1.7 μm) maintained at 35 °C. The mobile phase consisting of 0.1% formic acid in water (A) and acetonitrile (B) was utilized with the elution program set at 0 min–1 min, 5% B–30% B; 1 min–4 min, 30% B– 50% B; 4 min–8 min, and 50% B–90% B. The injection volume was 5 μL, and the flow rate was 0.3 mL/min. The mass spectrometry parameters in the negative ion mode, gas temperature, flow rate, and nebulizer pressure were 300 °C, 7 L/min, and 35 psi, respectively. The mass spectra properties of the 15 analytes and the IS are illustrated in Table 1.
To 100 μL of the plasma sample, 20 μL of methanol, 20 μL of IS solution (methylparaben, 1 μg/mL), and 5 μL of formic acid were added and vortexed for a duration of 2 min. Subsequently, the mixture underwent extraction with 800 μL of acetonitrile for 3 min. Following 10 min of centrifugation at 12,000 g, the supernatant was collected and evaporated to dryness under N2 to obtain the residue. Finally, the residue was reconstituted in 50% methanol (100 μL) and utilized for analysis.
Before initiating the study, six male SD rats underwent a 12-h fasting period, during which they were granted unrestricted access to water. Then, the rats were administered an oral dose of 3 g/kg of the OS extract, which had been dissolved in 0.5% CMC-Na aqueous solution. Blood samples, approximately 200 μL each, were collected at various time points: before administration and at 0.03, 0.08, 0.17, 0.25, 0.5, 0.75, 1, 2, 4, 6, 8, 10, 12, 24, 36, and 48 h post-administration. Following 10 min of centrifugation at 6,000 g, the resultant samples were stored at −80 °C.
The developed method was effectively applied to study the pharmacokinetics in rats following oral administration of the OS extract. […] This was likely due to their low concentrations in the OS extract. Ultimately, nine components (chrysin, chrysin-7-O-β-D-glucuronide, baicalin, baicalein, oroxin A, oroxin B, oroxylin A, oroxylin A-7-O-β-D-glucuronide, and scutellarein) were successfully fitted with pharmacokinetic parameters. The average plasma concentration–time profiles of these substances are depicted in Figure 3. […] All data were presented as the mean ± standard deviation (Mean ± SD).

[2] = Stability of the analytes in rat plasma samples under storage conditions; format: physicochemical; details: n = 6
Procedure: The bioanalytical method validation was evaluated for specificity, linearity, sensitivity, precision and accuracy, recovery, matrix effect, and stability to ensure compliance with the U.S. Food and Drug Administration (FDA) guidance on precise quantitative analysis ([Center for Drug Evaluation and Research of the U.S., 2018]). The assessment of specificity was conducted by comparing the chromatograms obtained from blank plasma, blank plasma spiked with the target components, and samples gathered following the oral administration of OS extract. Calibration curves were constructed by plotting the ratio for the peak area of the analyte to IS versus the concentration, with 1/x^2 serving as the weighting factor. The lower limit of quantification (LLOQ) was defined as the concentration at which a signal to noise ratio of […] 10 was achievable. The evaluation of precision and accuracy involved the analysis of six QC samples, both within a single day and over 3 consecutive days. Accuracy was expressed as the relative error (RE), whereas precision was gauged via relative standard deviation (RSD). Extraction recovery was ascertained by juxtaposing the responses of analytes in extracted samples against those in samples that were spiked post-extraction. The matrix effect was scrutinized by determining the ratio of the responses of the analytes in post-extraction spiked samples to those in the mixed standard solution. The stability of the analytes in plasma samples was explored under diverse conditions: encompassing a 12-h period in an autosampler, a 4-h interval at room temperature, three cycles of freezing–thawing, and a 7-day duration at −80 °C.
The retention times of the analyte peaks were consistent with those in the spiked samples. […] The LLOQs for chrysin, chrysin-7-O-β-D-glucuronide, hispidulin, wogonoside, quercetin, quercetin-7-O-β-D-glucoside, baicalin, baicalein, acacetin, oroxin A, oroxin B, oroxylin A, oroxylin A-7-O-β-D-glucuronide, apigenin, and scutellarein were 1.0, 2.0, 1.0, 0.3, 1.0, 0.1, 9.0, 6.0, 0.3, 6.0, 4.0, 1.0, 2.0, 0.5, and 0.3 ng/mL, respectively. In Supplementary Table S2, the RE for accuracy is between −13.77% and 12.55%, and the RSD for precision is below 14.55% (both intra- and inter-day). […] The matrix effect varied from 60.15% to 115.53%, with RSD values below 10.54%. In Supplementary Table S4, the RSD values for stability of the analytes are found to be lower than 13.98%, meaning that these components were stable under the following conditions: encompassing a 12-h period in an autosampler, a 4-h interval at room temperature, three cycles of freezing and thawing, and a 7-day duration at −80 °C.

[3] = male, rat plasma, oral 3 g/kg OS extract, n = 6, mean ± SD
[4] = spiked concentration 6400 ng/mL

| concentration at 0.5 h ([1]; male) | Tmax [1, 3] | SMILES | Plasma levels [1] | Measured, -80°C for 7 days ([2]; spiked concentration 2 ng/mL) | Measured, Autosampler for 12 h ([2]; spiked concentration 2 ng/mL) | Measured, Room temperature for 4 h ([2]; spiked concentration 2 ng/mL) | Measured, Three freeze-thaw cycles ([2]; spiked concentration 2 ng/mL) | Measured, -80°C for 7 days ([2]; spiked concentration 20 ng/mL) | Measured, Autosampler for 12 h ([2]; spiked concentration 20 ng/mL) | Measured, Room temperature for 4 h ([2]; spiked concentration 20 ng/mL) | Measured, Three freeze-thaw cycles ([2]; spiked concentration 20 ng/mL) | Measured, -80°C for 7 days ([2]; spiked concentration 320 ng/mL) | Measured, Autosampler for 12 h ([2]; spiked concentration 320 ng/mL) | Measured, Room temperature for 4 h ([2]; spiked concentration 320 ng/mL) | Measured, Three freeze-thaw cycles ([2]; spiked concentration 320 ng/mL) | other results |
| --- | --- | --- | --- | --- | --- | --- | --- | --- | --- | --- | --- | --- | --- | --- | --- | --- |
| 26 ng/mL | ~10 h | O=c1c(O)c(-c2ccc(O)c(O)c2)oc2cc(O)cc(O)c12 [Quercetin, quercetin] | too weak to obtain comprehensive pharmacokinetic curves | 1.81 ± 0.12 ng/mL | 1.90 ± 0.21 ng/mL | 1.80 ± 0.22 ng/mL | 1.80 ± 0.09 ng/mL | 17.37 ± 0.79 ng/mL | 17.83 ± 1.42 ng/mL | 19.06 ± 1.54 ng/mL | 20.46 ± 0.77 ng/mL | 285.05 ± 20.53 ng/mL | 325.17 ± 28.70 ng/mL | 298.43 ± 22.04 ng/mL | 288.07 ± 26.80 ng/mL |  |
| 1300 ng/mL | 0.25 h | O=c1cc(-c2ccccc2)oc2cc(O[C@@H]3O[C@H](CO)[C@@H](O)[C@H](O)[C@H]3O)c(O)c(O)c12 [Oroxin A, oroxin A] |  |  |  |  |  |  |  |  |  |  |  |  |  | AUC(0-t) ([1]; male, rat plasma, oral 3 g/kg OS extract, n = 6, mean ± SD, read-out: AUC(0-t)): 3990 ng·h/mL; AUC(0-inf) ([1]; male, rat plasma, oral 3 g/kg OS extract, n = 6, mean ± SD, read-out: AUC(0-∞)): 4060 ng·h/mL; Cmax ([1]; male, rat plasma, oral 3 g/kg OS extract, n = 6, mean ± SD, read-out: Cmax): 2890 ng/mL; half-life ([1]; male, rat plasma, oral 3 g/kg OS extract, n = 6, mean ± SD, read-out: T1/2 (converted)): 3.42 ± 2.51 h; Measured, -80°C for 7 days ([2]; spiked concentration 40 ng/mL): 41.12 ± 0.77 ng/mL; Measured, Autosampler for 12 h ([2]; spiked concentration 40 ng/mL): 39.49 ± 3.13 ng/mL; Measured, Room temperature for 4 h ([2]; spiked concentration 40 ng/mL): 38.81 ± 2.31 ng/mL; Measured, Three freeze-thaw cycles ([2]; spiked concentration 40 ng/mL): 39.17 ± 2.11 ng/mL; Measured, -80°C for 7 days ([2]; spiked concentration 400 ng/mL): 385.78 ± 15.57 ng/mL; Measured, Autosampler for 12 h ([2]; spiked concentration 400 ng/mL): 419.46 ± 28.69 ng/mL; Measured, Room temperature for 4 h ([2]; spiked concentration 400 ng/mL): 388.37 ± 19.15 ng/mL; Measured, Three freeze-thaw cycles ([2]; spiked concentration 400 ng/mL): 395.82 ± 21.75 ng/mL; Measured, -80°C for 7 days [2, 4]: 6200.94 ± 362.67 ng/mL; Measured, Autosampler for 12 h [2, 4]: 6572.01 ± 389.34 ng/mL; Measured, Room temperature for 4 h [2, 4]: 6516.27 ± 414.24 ng/mL; Measured, Three freeze-thaw cycles [2, 4]: 6021.13 ± 378.88 ng/mL |
|  | ~10 h | OCc1ccccc1O[C@@H]1O[C@H](CO)[C@@H](O)[C@H](O)[C@H]1O [salicin] |  |  |  |  |  |  |  |  |  |  |  |  |  |  |

| SMILES | concentration at 0.5 h ([1]; male) | Tmax [1, 3] | Plasma levels [1] | Measured, -80°C for 7 days ([2]; spiked concentration 2 ng/mL) | Measured, Autosampler for 12 h ([2]; spiked concentration 2 ng/mL) | Measured, Room temperature for 4 h ([2]; spiked concentration 2 ng/mL) | Measured, Three freeze-thaw cycles ([2]; spiked concentration 2 ng/mL) | Measured, -80°C for 7 days ([2]; spiked concentration 20 ng/mL) | Measured, Autosampler for 12 h ([2]; spiked concentration 20 ng/mL) | Measured, Room temperature for 4 h ([2]; spiked concentration 20 ng/mL) | Measured, Three freeze-thaw cycles ([2]; spiked concentration 20 ng/mL) | Measured, -80°C for 7 days ([2]; spiked concentration 320 ng/mL) | Measured, Autosampler for 12 h ([2]; spiked concentration 320 ng/mL) | Measured, Room temperature for 4 h ([2]; spiked concentration 320 ng/mL) | Measured, Three freeze-thaw cycles ([2]; spiked concentration 320 ng/mL) | other results |
| --- | --- | --- | --- | --- | --- | --- | --- | --- | --- | --- | --- | --- | --- | --- | --- | --- |
| O=c1c(O)c(-c2ccc(O)c(O)c2)oc2cc(O[C@@H]3O[C@H](CO)[C@@H](O)[C@H](O)[C@H]3O)cc(O)c12 [Quercetin-7-O-β-D-glucoside, quercetin-7-O-β-D-glucoside] | 8 ng/mL |  | too weak to obtain comprehensive pharmacokinetic curves | 1.96 ± 0.23 ng/mL | 2.10 ± 0.15 ng/mL | 1.98 ± 0.24 ng/mL | 2.03 ± 0.10 ng/mL | 19.58 ± 0.68 ng/mL | 19.79 ± 2.27 ng/mL | 20.28 ± 1.69 ng/mL | 17.78 ± 1.17 ng/mL | 296.81 ± 20.76 ng/mL | 320.27 ± 20.06 ng/mL | 315.81 ± 25.77 ng/mL | 326.98 ± 27.26 ng/mL |  |
